Values quoted from earlier work as cited in patent US20090247553A1, “Highly Pure Paliperidone or a Pharmaceutically Acceptable Salt Thereof Substantially Free of Keto Impurity” (ACTAVIS GROUP PTC EHF, priority 2008, published 2009).

Key:
[1] = powder

hygroscopicity [1]: non-hygroscopic
solubility in 0.1N HCl (0.1N HCl): 2.3 g/100 ml
solubility in ethanol (ethanol): 0.076 g/100 ml
solubility in water (water): 0.003 g/100 ml
Structure (SMILES): Cc1nc2n(c(=O)c1CCN1CCC(c3noc4cc(F)ccc34)CC1)CCCC2O (racemic) [Paliperidone, (±)-3-[2-[4-(6-fluoro-1,2-benzisoxazol-3-yl)-1-piperidinyl]ethyl]-6,7,8,9-tetrahydro-9-hydroxy-2-methyl-4H-pyrido[1,2-a]pyrimidin-4-one]
